Test system: males with ASD
Experiment: Repetitive Behavior Questionnaire (RBQ), SAT-1 trial
Type: in vivo, human
Protocol: Two observational examinations were performed by a clinician at 3 time points: baseline (56±8 days; mean±SEM; before the infusion), 2-days post-infusion, and 6-weeks post-infusion. The two examiner-based metrics were the Autism Diagnostic Observation Schedule, 2nd edition (ADOS-2) with video and audio files recorded on 3 cameras, and the Expressive One Word Picture Vocabulary Testing (EOWPVT). Both of these observational metrics were administered by a trained and certified examiner using approved test materials. Three standardized questionnaires were completed by parents at 3 time points: baseline, 7-days post-infusion, and 6-weeks post-infusion. The three standardized questionnaires completed by parents were the 58-question Aberrant Behavior Checklist (ABC), the 75-item Autism Treatment Evaluation Checklist (ATEC), and the 33-item repetitive behavior questionnaire (RBQ). Parents were asked to complete these three instruments with reference to how their child behaved in the previous 7 days. […]
Behavioral and neurological effects of treatment were assessed primarily by the examiner-based ADOS-2 protocol scores and standardized vocabulary testing (Expressive One Word Picture Vocabulary Test, EOWPVT), with secondary evaluation via parent-based assessments (Aberrant Behavior Checklist (ABC) scores, Autism Treatment Evaluation Checklist (ATEC) scores, Clinical Global Impression of Improvement (CGI) scores, and Repetitive Behavior Questionnaire (RBQ) scores). […] Examiner-based outcomes (ADOS and EOWPVT) were assessed at 2-days and 6-weeks after the infusion. Parent-based outcomes (ABC, ATEC, CGI, and RBQ) were assessed at 7-days and 6-weeks after the infusion. […]
Each child was used as their own control to examine before and after treatment effects from Example 1 in a paired t-test design for the analysis of the ADOS, EOWPVT, ABC, ATEC, RBQ (FIGS. 4-11 show individual analyses), and blood and urine safety data (FIGS. 2 and 3 show individual analyses). […] Categorical data, such as the presence or absence of adverse events or historical symptoms was analyzed by Fisher's exact test. […]

[1] = RBQ Total, 45 days after treatment

What does the source list for `Cc1ccc(C(=O)Nc2ccc(S(=O)(=O)O)c3cc(S(=O)(=O)O)cc(S(=O)(=O)O)c23)cc1NC(=O)c1cccc(NC(=O)Nc2cccc(C(=O)Nc3cc(C(=O)Nc4ccc(S(=O)(=O)O)c5cc(S(=O)(=O)O)cc(S(=O)(=O)O)c45)ccc3C)c2)c1` [Suramin, suramin]?
Repetitive Behavior Questionnaire (RBQ) scores (6-weeks): did not capture a change; Difference from baseline (mean ± sd) [1]: −3.2 ± 5.8; d (Cohen's d) [1]: 0.55

From patent US20190358181A1, “METHODS FOR AUTISM SPECTRUM DISORDER PHARMACOTHERAPY” (priority 2017, published 2019)
